Experiment [1] deals with S. mansoni schistosomulae. Briefly: Phenotypic primary screen assay on schistosomulae (phenotype; viability by methylene blue dye exclusion). In kind it is cell-based, Schistosoma mansoni. The conditions noted are these: three-day-old schistosomulae, 10 μM, 24 h; estimated 5 days post compound exposure. On the procedure:
Puerto Rican strain Biomphalaria glabrata snails infected with S. mansoni were kindly provided by Dr. Fred Lewis (Biomedical Research Institute and BEI Resources, MD, USA). Schistosomulae were obtained by exposing six to eight weeks-old snails to continuous light for 2 h at 32 °C. […] At this point, animals with internal dark granulations and with no observable body contraction/relaxation cycles were considered dead.
Schistosomulae were monitored under a stereo microscope (SMZ1270, Nikon). Phenotypic observations were made by analyzing schistosomulae, 24 h after drug addition to assess any immediate effect and five days post-compound exposure to observe long-term impacts on both the movement and overall body shape in comparison to control animals exposed to DMSO only.

For experiment [2], the system named is S. mansoni schistosomulae. Briefly: Motility assay on schistosomulae (pixel displacement, relative to DMSO control). In kind it is cell-based, Schistosoma mansoni. The conditions noted are these: for activity at 1 µM: Schistosoma mansoni, read-out: Fractional motility; for motility phenotype in words: after 24 h exposure. On the procedure:
Puerto Rican strain Biomphalaria glabrata snails infected with S. mansoni were kindly provided by Dr. Fred Lewis (Biomedical Research Institute and BEI Resources, MD, USA). Schistosomulae were obtained by exposing six to eight weeks-old snails to continuous light for 2 h at 32 °C. The resulting suspension of cercaria was then mechanically transformed as described ([Lewis, 2001]) and cultured in Opti-MEM/antibiotics (Thermo Fisher Scientific, Waltham, MA) containing 100 μg/mL streptomycin and 100 units/ml penicillin supplemented with 5% fetal bovine serum (FBS; Thermo Fisher). Parasite cultures were incubated at 37 °C with 5% CO2 for at least 10 days with no apparent loss of viability. At this point, animals with internal dark granulations and with no observable body contraction/relaxation cycles were considered dead.
(§1) Schistosomulae (200/well) and adult parasites (unpaired worms) were maintained in 300 μL OPTI-MEM with 5% dialyzed FBS (without antibiotics) and exposed to compounds at 1 and 10 μM for 24 h. A kinetic assay consisting of 1, 3, 6 and 12 h incubation times was performed on selected hits by motility monitoring using a stereo microscope (SMZ1270, Nikon) for adults and an inverted microscope for schistosomulae (eclipse TE2000-U, Nikon) connected to a monochrome camera (DS-Qi2, Nikon) for image acquisition. Images were recorded at a rate of 10 frames/s for a period of 1 min and videos were analyzed using ImageJ software (version 1.41, NIH, USA). Parasite movement quantification and data analysis protocols were applied using the pixel displacement method ([Patocka et al., 2014]; [Rashid et al., 2015]) and compared to control parasites treated with DMSO. Parasites were then washed several times in Opti-MEM, 5% FBS and incubated up to an additional three days (schistosomulae) or five days (adult worms) at 37 °C, 5% CO2 and motility was recorded as described above.

The test system of the next experiment is S. mansoni adult worms. Briefly: Motility assay on adult parasites (pixel displacement, relative to DMSO control). In kind it is cell-based, Schistosoma mansoni. The conditions noted are these: for Fractional motility: 10 μM. The method, then:
Adult parasites were collected from 40 day-old female CD1 mice (Charles River) previously inoculated by the tail infection method ([Lewis, 2001]). Six weeks post-infection, mice were sacrificed, and adult worms extracted after perfusion of in the hepatic portal vein and mesenteric venules ([Lewis, 2001]). Animal procedures were reviewed and approved by the Facility Animal Care Committee of McGill University (Protocol No. 3346) and were conducted in accordance with the guidelines of the Canadian Council on Animal Care.
as §1

Experiment [3] relates to S. mansoni schistosomulae. Briefly: Phenotypic primary screen assay on schistosomulae (phenotype; viability by methylene blue dye exclusion). In kind it is cell-based. The conditions noted are these: Schistosoma mansoni; three-day-old schistosomulae, 10 μM, 24 h; calculated 5 days post compound exposure; read-out: Viability (%).
[4] abbreviates: 120 h, schistosomulae, secondary screen, 24h exposure, read at D5, 1 µM.
Setting [5] is: schistosomulae, secondary screen, 24h exposure, read at D1, 1 µM.
Where [6] appears, read: schistosomulae, 1h exposure, read at D1, 10 µM.
Where [7] appears, read: schistosomulae, 1h exposure, read at D5, 10 µM.
Where [8] appears, read: schistosomulae, 3h exposure, read at D1, 10 µM.
[9] abbreviates: schistosomulae, 3h exposure, read at D5, 10 µM.
Where [10] appears, read: schistosomulae, 6h exposure, read at D1, 10 µM.
Setting [11] is: schistosomulae, secondary screen, 24h exposure, read at D1, 10 µM.
Where [12] appears, read: schistosomulae, secondary screen, 24h exposure, read at D5, 10 µM.
The mark [13] stands for this setting: secondary screen, D1, Female adult worms.
Where [14] appears, read: secondary screen, D1, Male adult worms.
[15] abbreviates: secondary screen, D5, Female adult worms.
Setting [16] is: secondary screen, D5, Male adult worms.
Setting [17] is: schistosomulae, 6h exposure, read at D5, 10 µM.

SMILES strings stand for the structures. Like-named read-outs stand apart in the source and are kept apart here.

Regarding `C[C@@H](NCCCc1cccc(C(F)(F)F)c1)c1cccc2ccccc12` [AMG-073], the Phenotype entry in experiment [1] is given as “big, granulated, blebbing”. Further, the activity at 1 µM was -32% in experiment [2] (setting [4]) and -28% in experiment [2] (setting [5]). In addition, the Fractional motility in experiment [2] (setting [6]) was 7.02; in experiment [2] (setting [7]) it was 0.35; in experiment [2] (setting [8]) it was 12.64; in experiment [2] (setting [9]), 0.72; in experiment [2] (setting [10]) it was 6.39; in experiment [2] (setting [11]), -0.83. The Fractional motility in experiment [2] (setting [12]) is -1.00; with S. mansoni adult worms (setting [13]) it was 0.11; in the experiment with S. mansoni adult worms (setting [14]), -0.24; with S. mansoni adult worms (setting [15]) it was -0.43; in the experiment on S. mansoni adult worms (setting [16]) it was -0.27. Besides, the “motility in extended assay with reduced incubation times, in words” value in experiment [2] (three-day old schistosomulae, incubation 1 h, 3 h, 6 h) is “did not exhibit a significant change before the 24 hr incubation cut-off”. Moreover, the viability at 10 µM in experiment [3] was 55%.

As for `COc1cc(N2CCN(C)CC2)ccc1Nc1nccc(-c2cn(C)c3cnccc23)n1` [AZ191], in experiment [1], the Phenotype entry is “granulated, blebbing”. Further, the activity at 1 µM is 49% in experiment [2] (setting [4]) and -38% in experiment [2] (setting [5]). The Fractional motility in experiment [2] (setting [11]) was -0.69; in experiment [2] (setting [12]), -0.09; with S. mansoni adult worms (setting [13]), -0.48; with S. mansoni adult worms (setting [14]) it was 0.25; with S. mansoni adult worms (setting [15]) it was -0.27; in the experiment with S. mansoni adult worms (setting [16]), 2.64. In addition, in experiment [3], the viability at 10 µM was 89.5%.

`C=CC(=O)Nc1cc(Nc2nccc(-c3cn(C)c4ccccc34)n2)c(OC)cc1N(C)CCN(C)C` [AZD9291]: the Phenotype entry in experiment [1] is on record as “dark, granulated, some blebbing”. Also, the results for the activity at 1 µM in experiment [2] (setting [4]) and in experiment [2] (setting [5]) were 134% and 89%, respectively. Further, the Fractional motility in experiment [2] (setting [6]) is on record as 0.30; in experiment [2] (setting [7]) it was -0.42; in experiment [2] (setting [8]) it was 1.06; in experiment [2] (setting [9]), -0.33; in experiment [2] (setting [10]), -0.37; in experiment [2] (setting [17]), 0.0374. Moreover, the Fractional motility in experiment [2] (setting [11]) is 7.13; in experiment [2] (setting [12]) it was -0.73; with S. mansoni adult worms (setting [13]), -0.59; with S. mansoni adult worms (setting [14]), 0.48; in the experiment with S. mansoni adult worms (setting [15]), -0.14; in the experiment on S. mansoni adult worms (setting [16]), -0.20. Moreover, in experiment [3], the viability at 10 µM was 39.5%.

Take `C=CC[C@]1(O)CC[C@H]2[C@@H]3CCC4=CC(=O)CCC4=C3C=C[C@@]21C` [Altrenogest]: the Phenotype entry in experiment [1] is reported as “elongated”. The activity at 1 µM in experiment [2] (setting [4]) was -12%; in experiment [2] (setting [5]) it was 147%. Besides, the Fractional motility is 10.00 in experiment [2] (setting [11]); -0.06 in experiment [2] (setting [12]); -0.04 in the experiment on S. mansoni adult worms (setting [13]); -0.0348 in the experiment on S. mansoni adult worms (setting [14]); -0.50 in the experiment with S. mansoni adult worms (setting [15]); 0.0449 in the experiment with S. mansoni adult worms (setting [16]). The viability at 10 µM in experiment [3] is 90%.

As to `CN(C)CCC=C1c2ccccc2CCc2ccccc21` [Amitriptyline], the Phenotype entry in experiment [1] is recorded as “elongated, granulated, blebbing”. Moreover, the activity at 1 µM is -4% in experiment [2] (setting [4]) and 286% in experiment [2] (setting [5]). The Fractional motility in experiment [2] (setting [11]) was 5.01; in experiment [2] (setting [12]), 0.60; in the experiment on S. mansoni adult worms (setting [13]), 0.24; in the experiment on S. mansoni adult worms (setting [14]), 1.53; in the experiment on S. mansoni adult worms (setting [15]) it was 0.30; in the experiment with S. mansoni adult worms (setting [16]), 0.03. The viability at 10 µM in experiment [3] is 90%.

For the compound `COC(=O)C1=CCCN(C)C1` [Arecoline], the Phenotype entry in experiment [1] is recorded as “round body, blebbing”. The Fractional motility in experiment [2] (Arecoline and analogs, 24h, D1, 10 µM) is listed as -0.93; in experiment [2] (Arecoline and analogs, 24h, D5, 10 µM), 1.49; in experiment [2] (setting [6]) it was -0.93; in experiment [2] (setting [7]) it was -0.87; in experiment [2] (setting [8]) it was -0.70; in experiment [2] (setting [9]), -0.72. Besides, the Fractional motility in experiment [2] (setting [10]) is -0.86; in experiment [2] (setting [17]), -0.49; in experiment [2] (setting [5]), -0.93; in experiment [2] (setting [11]), -0.93; in experiment [2] (schistosomulae, secondary screen, 24h exposure, read at D5, 1 µM) it was 1.22; in experiment [2] (setting [12]) it was 1.49. Also, the Fractional motility in the experiment on S. mansoni adult worms (Arecoline and analogs, D1, Female adult worms) is listed as -0.92; in the experiment on S. mansoni adult worms (Arecoline and analogs, D1, Male adult worms), -0.79; with S. mansoni adult worms (Arecoline and analogs, D5, Female adult worms), -0.72; in the experiment with S. mansoni adult worms (Arecoline and analogs, D5, Male adult worms) it was -0.0374; with S. mansoni adult worms (setting [13]) it was -0.92; with S. mansoni adult worms (setting [14]), -0.79. For the same compound, the results for the Fractional motility in the experiment with S. mansoni adult worms (setting [15]) and with S. mansoni adult worms (setting [16]) were -0.72 and -0.0374, respectively. The activity at 1 µM in experiment [2] (120 h, Arecoline and analogs, 24h, D5, 1 µM) was 122%; in experiment [2] (Arecoline and analogs, 24h, D1, 1 µM), -93%. Further, the “motility phenotype in words” value in experiment [2] (schistosomulae) is given as “short term, pronounced paralysis”; with S. mansoni adult worms (adults, after 24 h exposure), “nearly complete paralysis”. In addition, the viability at 10 µM in experiment [3] was 96.5%.

`CNCc1ccc(C)c(NC(=O)c2ccc(Nc3nc(-c4ccccc4)c4ccccc4n3)cc2)c1` [BMS-833923]: the Phenotype result in experiment [1] is on record as “big, granulated”. Further, the activity at 1 µM in experiment [2] (setting [4]) is -48%; in experiment [2] (setting [5]), 10%. Also, the Fractional motility in experiment [2] (setting [11]) is given as 10.40; in experiment [2] (setting [12]), -0.90; with S. mansoni adult worms (setting [13]), -0.84; in the experiment on S. mansoni adult worms (setting [14]), -0.59; in the experiment with S. mansoni adult worms (setting [15]) it was -0.64; in the experiment with S. mansoni adult worms (setting [16]), 0.14. Also, the viability at 10 µM in experiment [3] is 32.5%.

As for `CN(C)CC/C=C1/c2ccccc2Sc2ccc(Cl)cc21` [Chlorprothixene], in experiment [1], the Phenotype entry is given as “elongated”. Besides, the activity at 1 µM in experiment [2] (120 h, Selleckchem customized library secondary screen, 24h, D5, 1 µM) amounted to 207%. Besides, the Fractional motility in experiment [2] (Selleckchem customized library secondary screen, 24h, D1, 10 µM) came to 73.31; in experiment [2] (Selleckchem customized library secondary screen, 24h, D5, 10 µM), 9.20; in the experiment with S. mansoni adult worms (setting [13]), 2.18; in the experiment with S. mansoni adult worms (setting [14]), 2.53; with S. mansoni adult worms (setting [15]), 0.23; with S. mansoni adult worms (setting [16]), 0.16. Further, the “motility phenotype in words” value in experiment [2] (schistosomulae) is given as “high levels of hypermotility”. For the same compound, the viability at 10 µM in experiment [3] is 99%.

As to `CCN(CC)CCOc1ccc(C(=C(Cl)c2ccccc2)c2ccccc2)cc1` [Clomifene], the Phenotype entry in experiment [1] is “big, granulated”. For the same compound, the results for the activity at 1 µM in experiment [2] (setting [4]) and in experiment [2] (setting [5]) were 49% and 12%, respectively. Also, the Fractional motility in experiment [2] (setting [11]) was 1.47; in experiment [2] (setting [12]) it was 0.15; in the experiment with S. mansoni adult worms (setting [13]), -0.44; with S. mansoni adult worms (setting [15]), -0.03; with S. mansoni adult worms (setting [16]) it was -0.17. Further, in experiment [3], the viability at 10 µM is 100%.

The term viability denotes a read-out of living cells in per cent, often relative to untreated cells.

The values above are taken from article PMC7284125, “Identification of annotated bioactive molecules that impair motility of the blood fluke Schistosoma mansoni” (International Journal for Parasitology: Drugs and Drug …, 2020).
